Measurements from US20250346584A1, “NOVEL KAPPA OPIOID LIGANDS” (The Scripps Research Institute, priority 2012, published 2025).

Molecular target: kappa opioid receptor (OPRK1) (Homo sapiens (Human), UniProt P41145)
Assay: OPRK1 antagonist assay (b-arrestin-2-TEV / b-lactamase reporter cell line, EC80 U-50488 challenge)
Assay type: cell-based
Details: read-out: IC50 nM (% inhib if other than 50%); antagonist mode vs EC80 U-50488; NA = not active at concentrations up to 10 μM

Chain of kappa opioid receptor (OPRK1) (P41145 whole entry): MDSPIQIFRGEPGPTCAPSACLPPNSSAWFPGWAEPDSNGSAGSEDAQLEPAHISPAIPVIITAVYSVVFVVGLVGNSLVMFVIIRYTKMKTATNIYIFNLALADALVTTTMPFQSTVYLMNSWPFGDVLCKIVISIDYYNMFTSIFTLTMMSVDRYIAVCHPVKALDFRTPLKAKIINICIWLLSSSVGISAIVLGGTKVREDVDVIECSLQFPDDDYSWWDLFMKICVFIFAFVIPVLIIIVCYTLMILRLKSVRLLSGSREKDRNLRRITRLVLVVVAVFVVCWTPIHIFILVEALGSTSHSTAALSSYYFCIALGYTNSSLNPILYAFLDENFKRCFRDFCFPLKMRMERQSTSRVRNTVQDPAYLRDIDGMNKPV

Structure (SMILES)	IC50
CO[C@H]1CN(c2nc3ccc(C)cc3cc2-c2nc(C)no2)CC[C@H]1NCC(C)C [compound 529]	369 nM
CO[C@H]1CN(c2nc3ccc(F)cc3cc2-c2nc(C)no2)CC[C@H]1NCC(C)C [compound 530]	5100 nM
Cc1ccc2nc(N3CCC(NC4CCCCC4)CC3)c(-c3ccncn3)cc2c1 [compound 532]	334 nM
Cc1ccc2nc(N3CCC(NCC(C)C)CC3)c(-c3ccncn3)cc2c1 [compound 534]	600 nM
CO[C@H]1CN(c2nc3cc(F)ccc3cc2-c2nc(C)no2)CC[C@H]1NCC(C)C [compound 538]	970 nM
COC(=O)c1cc(C)ccc1N1CCC(NC2CCCCC2)C(OC)C1 (stereo not shown) [compound 539]	3700 nM

Now those with a lower IC50, led by results:

IC50	Structure (SMILES)
263 nM	Cc1ccc2nc(N3CCC(NC4CCCC4)CC3)c(-c3ccncn3)cc2c1 [compound 533]
45 nM	Cc1noc(-c2cc3ccc(Cl)cc3nc2N2CCC(NCC(C)C)CC2)n1 [compound 541]
32 nM	Cc1noc(-c2cc(C)c(C)nc2N2CC[C@H](NC3CCCCC3)[C@@H](O)C2)n1 [compound 543]
23 nM	Cc1noc(-c2cc3ccc(F)cc3nc2N2CCC(NC3CCOCC3)CC2)n1 [compound 528]
19 nM	Cc1noc(-c2cc3ccc(Cl)cc3nc2N2CCC(NC3CCCCC3)CC2)n1 [compound 536]
16 nM	CCOC(=O)c1cc(Br)cnc1N1CC[C@H](NC2CCCCC2)[C@@H](O)C1 [compound 540]
12 nM	CO[C@H]1CN(c2nc3cc(Cl)ccc3cc2-c2nc(C)no2)CC[C@H]1NC1CCCCC1 [compound 537]
